According to patent publication US20230391783A1, “COMPOUND CONTAINING 2,4-THIAZOLE RING, PREPARATION METHOD THEREFOR, AND APPLICATION THEREOF” (SHANDONG UNIVERSITY, priority 2021, published 2023):

Experiments:
[1] = system: lymphocytes (fresh spleen cells); assay: Lymphocyte proliferation assay (ConA-induced spleen cells); format: cell-based, rat; conditions: for IC50: Rattus norvegicus, inhibition of lymphocyte proliferation, 5 μg/mL ConA; for IC50 / Inhibition rate (%): 48 hours; for Inhibition rate (%): lymphocyte proliferation induced with 5 μg/mL ConA, test concentration not given
Procedure: (§1) Lymphocytotoxicity test: rats were euthanized by spinal dislocation method, their spleens were aseptically removed and ground to make a single cell suspension. After removing red blood cells with 2 mL of red blood cell lysis buffer, the cell concentration was adjusted to 2×10^6 cells/mL using RPMI-1640 medium containing 10% fetal bovine serum (FBS). Next, 100 μL of the 2×10^6 cells/mL cell suspension and 100 μL of the appropriate concentration of the tested compound were added to each well of a 96-well plate, and the plate was incubated at 37° C. with 5% CO2 for 48 hours. At the end of the incubation period, 10 μL of CCK8 was added to each well, and the plate was returned to the incubator for 5-7 hours. The OD450 value was then measured at 450 nm using an enzyme-linked immunosorbent assay reader.
Lymphocyte proliferation assay: fresh spleen cells at a concentration of 2×10^6 cells/mL were incubated for 48 hours in an incubator maintained at 37° C. and 5% CO2 for 48 hours, and the culture medium was induced for cell proliferation with 5 μg/mL of ConA, and the appropriate concentration of the tested compound was added to test its inhibitory activity on lymphocyte proliferation. The test results of some compounds are shown in the table below and figures accompanying the application: […]

lymphocytes = assay: Lymphocytotoxicity test (CCK8, no stimulation factor); format: cell-based, rat
Procedure: as §1
In addition, the toxicity of the compounds on lymphocytes was also tested in this example. The testing method was as follows: the cell density was 3×10^6 cells/mL, and 100 μL of the cell suspension containing 3×10^5 cells/well was added to each well of a 96-well plate without any stimulation factor.

[2] = system: LPS-induced inflammatory factors IL-6, IL-2, TNF-a and IFN-y in serum; assay: Inhibition of LPS-induced cytokine storm in mice; format: in vivo
Procedure: A total of 15 healthy male mice were randomly and equally divided into 3 groups, namely, control group, model group and drug administration group, with 5 mice in each group, labeled and their body weight recorded. Respectively administered: the control group and the model group were injected with normal saline via tail vein respectively, and the administration group was injected with the prepared in Examples 1-4 via tail vein respectively; the dose was 10 mg/kg (2 mg/mL; 50 μL/10 g). One hour later, LPS was injected intraperitoneally at 3 mg/kg (0.3 mg/mL, 100 μL/10 g). A second injection of the drug was given 5 hours later. Blood was collected from the mice 9 hours later, followed by euthanasia.
(§2) ELISA was performed to determine levels of IL-6, IL-2, TNF-a and IFN-y in serum.
Histopathological examination was performed on the administration group of compound IA-3: mouse lungs were fixed with 4% paraformaldehyde, and histopathological changes were observed by HE.

[3] = system: CD-3 antibody-induced inflammatory factors IL-6, IL-2, TNF-a and IFN-y in serum; assay: Inhibition of CD-3 antibody-induced cytokine storm in mice; format: in vivo; conditions: 10 mg/kg via tail vein, two injections, CD-3 antibody 100 μg/kg i.p., ELISA (FIG. 5)
Procedure: A total of 15 healthy male mice were randomly and equally divided into 3 groups, namely, control group, model group and drug administration group, with 5 mice in each group, labeled and their body weight recorded. Respectively administered: the control group and the model group were injected with normal saline via tail vein respectively, and the administration group was injected with the compounds prepared in Examples 1-4 via tail vein respectively; the dose was 10 mg/kg (2 mg/mL; 50 μL/10 g). CD-3 antibody was injected intraperitoneally, 100 μg/kg, after 0.5 hours. A second injection of the drug was given 5 hours later. Blood was collected from the mice 9 hours later, followed by euthanasia.
as §2

[4] = Pharmacokinetics and oral bioavailability in Wistar rats; format: in vivo; conditions: rat
Procedure: To prepare the standard series solution, a suitable amount of compound IA-3 was accurately weighed and placed in a 100 mL volumetric flask. The compound was dissolved in acetonitrile and diluted to the mark to produce a 25.0 μg/mL stock solution. The solution was mixed thoroughly by shaking and used for further analysis. An appropriate amount of the stock solution was taken separately, diluted with acetonitrile, and made up to the mark to prepare a series of standard solutions with concentrations of 5, 10, 25, 50, 100, 250, 500, and 1000 ng/mL. The solutions were stored in a refrigerator at 4° C. for later use.
Preparation of internal standard solution: a suitable amount of internal standard was accurately weighed and placed in a 100 mL volumetric flask. The internal standard was dissolved in acetonitrile and diluted to the mark to produce a 25 μg/mL stock solution. The solution was mixed thoroughly by shaking and used for further analysis. An accurately weighed amount of the stock solution was taken again and diluted with acetonitrile to prepare the internal standard reference solution at a concentration of 50 ng/mL. The solution was stored in a refrigerator at 4° C. for later use.
Preparation of plasma samples: 80 μL of rat plasma was taken, and 120 μL of internal standard was added. The mixture was vortexed for 2 min and centrifuged for 10 min. Then, 140 μL of the supernatant was collected and centrifuged for another 10 min. Finally, 10 μL of the supernatant was injected for analysis.
Standard Curve: 64 μL of blank rat plasma was mixed with 16 μL of the test compound standard series solution and 120 μL of acetonitrile solution containing the internal standard. The mixture was vortexed for 2 minutes and centrifuged for 10 minutes. Then, 140 μL of the supernatant was taken and centrifuged for another 10 minutes, 10 μL of the sample was injected and analyzed with HPLC-HR-MS. Instrumentation obtained the linear regression equation as the standard curve.
Sampling: eight healthy male Wistar rats were randomly divided into two groups (oral group and intravenous group), with four rats in each group. Rats were fasted for 12 h and provided with free access to water before the experiment. The oral group was administered with the test drug at a dose of 5 mg/kg, and the intravenous group was administered with 1 mg/kg. Blood samples of approximately 0.4 mL were collected from the rat orbital vein before and at 5 min, 15 min, 30 min, 1 h, 1.5 h, 2 h, 4 h, 6 h, 8 h, 10 h, and 12 h after administration, and immediately transferred to heparinized centrifuge tubes. Plasma was separated by centrifugation.
Sample determination and data processing: the rat plasma samples were processed according to the “Preparation of plasma samples” procedure and analyzed under the conditions described above. The non-compartmental model was applied to process the drug concentration data mentioned above, and the pharmacokinetic parameters were calculated using the DAD 2.0 software. The bioavailability was calculated according to the formula F=AUCig*Div/AUCiv*Dig*100%.

[5] = male, Wistar, plasma, iv, single injection 1 mg/kg
[6] = male, Wistar, plasma, single oral administration 5 mg/kg
[7] = single oral administration 5 mg/kg

| SMILES | Inhibition rate (%) [1] | other results |
| --- | --- | --- |
| O=C(NCc1cccnc1)c1csc(-c2cnn3cccnc23)n1 [IA-3] | 97.09% | IC50 [1]: 13.2 ± 2.05 nM; inhibitory effect on lymphocyte proliferation (in words) ([1]; rat lymphocytes): particularly significant inhibitory effect on lymphocytes; safety index (in words) (lymphocytes): high safety index; toxicity on lymphocytes (in words) (lymphocytes; 5, 2.5, 1.25 and 0.625 μM, no stimulation factor (FIG. 2)): less cytotoxicity; reduction of LPS-induced IL-6, IL-2, TNF-a and IFN-y levels in serum ([2]; 10 mg/kg via tail vein, two injections, LPS 3 mg/kg i.p., ELISA (FIG. 3)): most significant effect on the reduction of the above factors; lung histopathology (H&E) ([2]; LPS model, 10 mg/kg via tail vein (FIG. 4)): reduced the severity of lung pathology; reduction of CD-3 antibody-induced IL-6, IL-2, TNF-a and IFN-y levels in serum [3]: most significant effect on the reduction of the above factors; AUC(0-t) [4, 5]: 717 ng·h/mL; MRT [4, 5]: 30.4 min; clearance [4, 5]: 45.1 mL/min/kg; half-life [4, 5]: 21.6 min; Vd ([4]; male, Wistar, plasma, iv, single injection 1 mg/kg, read-out: Vss): 1.08 L/kg; bioavailability ([4]; male, Wistar, plasma, oral, intragastric 5 mg/kg vs intravenous 1 mg/kg, read-out: relative oral bioavailability): 22.1%; AUC(0-inf) [4, 6]: 408 ng·h/mL; AUC(0-t) [4, 6]: 408 ng·h/mL; MRT [4, 6]: 76.2 min; half-life [4, 6]: 125 min; CL [4, 7]: 384 mL/min/kg; Vss [4, 7]: 69.5 L/kg |
| O=C(NCCc1ccccn1)c1csc(-c2cnn3cccnc23)n1 [IA-21] | 44.14% | IC50 [1]: 488 ± 22 nM |
| O=C(NCCC(F)(F)F)c1csc(-c2cnn3cccnc23)n1 [IA-18] | 43.09% | – |
| COC(=O)C(CO)NC(=O)c1csc(C(=O)c2c[nH]c3ccccc23)n1 (centres unmarked) [IIA-13] | 43.99% | – |
| O=C(OCc1cn(Cc2ccc3ccccc3c2)nn1)c1csc(C(=O)c2c[nH]c3ccccc23)n1 [IIB-2] | 49.4% | – |
| COC(=O)C1CCCCN1C(=O)c1csc(-c2cnn3cccnc23)n1 (centres unmarked) [IA-16] | 28.83% | – |
| CC1CCC2(OC1)OC1CC3C4CC=C5CC(OC(=O)c6csc(C(=O)c7c[nH]c8ccccc78)n6)CCC5(C)C4CCC3(C)C1C2C (centres unmarked) [IIA-7] | 38.74% | – |
| O=C(NCCc1ccncc1)c1csc(C(=O)c2c[nH]c3ccccc23)n1 [IIA-20] | 42.64% | – |
| O=C(Nc1cccnc1)c1csc(C(=O)c2c[nH]c3ccccc23)n1 [IIA-17] | 59.31% | – |
| O=C(NCc1cccnc1)c1csc(C(=O)c2c[nH]c3ccccc23)n1 [IIA-6] | 56.46% | IC50 [1]: 479 ± 14.2 nM |
| CC(=O)NCCNC(=O)c1csc(C(=O)c2c[nH]c3ccccc23)n1 [IIA-12] | 27.93% | – |
| O=C(c1nc(C(=O)N2CCC[C@H]2c2ccccc2)cs1)c1c[nH]c2ccccc12 [IIA-18] | 50.6% | – |
| CC(C)=CCOC(=O)c1csc(C(=O)c2c[nH]c3ccccc23)n1 [IIA-4] | 48.95% | – |
| O=C(NCCCN1CCCC1)c1csc(C(=O)c2c[nH]c3ccccc23)n1 [IIA-15] | 28.53% | – |
| O=C(c1csc(-c2cnn3cccnc23)n1)N1CCC[C@H]1c1cc(F)ccc1F [IA-17] | 46.55% | IC50 [1]: 436 ± 33.4 nM |
| O=C(Nc1cccnc1)c1csc(-c2cnn3cccnc23)n1 [IA-10] | 59.61% | IC50 [1]: 421 ± 21.1 nM |

| SMILES | Inhibition rate (%) [1] | other results |
| --- | --- | --- |
| O=C(c1csc(-c2cnn3cccnc23)n1)N1CCC[C@H]1c1ccccc1 [IA-9] | 58.26% | IC50 [1]: 399 ± 15.2 nM |
| O=C(NCC(O)C(F)(F)F)c1csc(-c2cnn3cccnc23)n1 (centres unmarked) [IA-19] | 41.89% | – |
| O=C(OCc1cn(CC23CC4CC(CC(C4)C2)C3)nn1)c1csc(C(=O)c2c[nH]c3ccccc23)n1 [IIB-5] | 59.01% | – |
| O=C(NCC(F)(F)F)c1csc(C(=O)c2c[nH]c3ccccc23)n1 [IIA-27] | 51.8% | – |
| C#COC(=O)c1csc(C(=O)c2c[nH]c3ccccc23)n1 [IIA-3] | 47.15% | – |
| O=C(NCc1ccc(F)cc1F)c1csc(-c2cnn3ccccc23)n1 [IA-5] | 47.15% | – |
| O=C(c1nc(C(=O)N2CCC[C@H]2c2ccncc2)cs1)c1c[nH]c2ccccc12 [IIA-21] | 54.35% | – |
| O=C(OCc1cn(CCCCCCBr)nn1)c1csc(C(=O)c2c[nH]c3ccccc23)n1 [IIB-3] | 39.79% | IC50 [1]: 468 ± 20.1 nM |
| CCC(CCC(C)C1CCC2C3CC=C4CC(OC(=O)c5csc(C(=O)c6c[nH]c7ccccc67)n5)CCC4(C)C3CCC12C)C(C)C (centres unmarked) [IIA-9] | 48.2% | – |
| O=C(c1nc(C(=O)N2CCCCC2C(=O)O)cs1)c1c[nH]c2ccccc12 (centres unmarked) [IIA-22] | 53.75% | IC50 [1]: 479 ± 9.88 nM |
| CC(C)=CCC/C(C)=C/CNC(=O)c1csc(-c2cnn3cccnc23)n1 [IA-24] | 55.71% | IC50 [1]: 457 ± 30.6 nM |
| Cc1c(COC(=O)c2csc(C(=O)c3c[nH]c4ccccc34)n2)cccc1-c1ccccc1 [IIA-11] | 25.08% | – |
| O=C(NCc1ccc(F)cc1F)c1csc(C(=O)c2c[nH]c3ccccc23)n1 [IIA-14] | 37.99% | – |
| COC(=O)[C@@H]1C[C@@H](O)CN1C(=O)c1csc(C(=O)c2c[nH]c3ccccc23)n1 [IIA-26] | 45.05% | – |
| O=C(c1nc(C(=O)N2CCCC2c2cc(F)ncc2F)cs1)c1c[nH]c2ccccc12 (centres unmarked) [IIA-28] | 54.05% | – |
| O=C(NCc1cncnc1)c1csc(-c2cnn3cccnc23)n1 [IA-22] | 32.73% | – |
